Test results taken from ChEMBL document CHEMBL1146318, “Synthesis and SAR of novel 2-arylthiazolidinones as selective analgesic N-type calcium channel blockers” (Bioorg Med Chem Lett, 2007).

How the values were obtained:
Homo sapiens = species on record: Homo sapiens; test: Selectivity for calcium channel Cav2.2 over calcium channel L type
[1] = target: Voltage-dependent N-type calcium channel subunit alpha-1B (Homo sapiens, UniProt Q00975); test: Inhibition of calcium channel Cav2.2 in IMR32 cells; assay type: cell-based, IMR-32
[2] = Inhibition of calcium channel L type in IMR32 cells; assay type: cell-based, Homo sapiens; conditions: imr-32

Chain of Voltage-dependent N-type calcium channel subunit alpha-1B (Q00975 whole entry): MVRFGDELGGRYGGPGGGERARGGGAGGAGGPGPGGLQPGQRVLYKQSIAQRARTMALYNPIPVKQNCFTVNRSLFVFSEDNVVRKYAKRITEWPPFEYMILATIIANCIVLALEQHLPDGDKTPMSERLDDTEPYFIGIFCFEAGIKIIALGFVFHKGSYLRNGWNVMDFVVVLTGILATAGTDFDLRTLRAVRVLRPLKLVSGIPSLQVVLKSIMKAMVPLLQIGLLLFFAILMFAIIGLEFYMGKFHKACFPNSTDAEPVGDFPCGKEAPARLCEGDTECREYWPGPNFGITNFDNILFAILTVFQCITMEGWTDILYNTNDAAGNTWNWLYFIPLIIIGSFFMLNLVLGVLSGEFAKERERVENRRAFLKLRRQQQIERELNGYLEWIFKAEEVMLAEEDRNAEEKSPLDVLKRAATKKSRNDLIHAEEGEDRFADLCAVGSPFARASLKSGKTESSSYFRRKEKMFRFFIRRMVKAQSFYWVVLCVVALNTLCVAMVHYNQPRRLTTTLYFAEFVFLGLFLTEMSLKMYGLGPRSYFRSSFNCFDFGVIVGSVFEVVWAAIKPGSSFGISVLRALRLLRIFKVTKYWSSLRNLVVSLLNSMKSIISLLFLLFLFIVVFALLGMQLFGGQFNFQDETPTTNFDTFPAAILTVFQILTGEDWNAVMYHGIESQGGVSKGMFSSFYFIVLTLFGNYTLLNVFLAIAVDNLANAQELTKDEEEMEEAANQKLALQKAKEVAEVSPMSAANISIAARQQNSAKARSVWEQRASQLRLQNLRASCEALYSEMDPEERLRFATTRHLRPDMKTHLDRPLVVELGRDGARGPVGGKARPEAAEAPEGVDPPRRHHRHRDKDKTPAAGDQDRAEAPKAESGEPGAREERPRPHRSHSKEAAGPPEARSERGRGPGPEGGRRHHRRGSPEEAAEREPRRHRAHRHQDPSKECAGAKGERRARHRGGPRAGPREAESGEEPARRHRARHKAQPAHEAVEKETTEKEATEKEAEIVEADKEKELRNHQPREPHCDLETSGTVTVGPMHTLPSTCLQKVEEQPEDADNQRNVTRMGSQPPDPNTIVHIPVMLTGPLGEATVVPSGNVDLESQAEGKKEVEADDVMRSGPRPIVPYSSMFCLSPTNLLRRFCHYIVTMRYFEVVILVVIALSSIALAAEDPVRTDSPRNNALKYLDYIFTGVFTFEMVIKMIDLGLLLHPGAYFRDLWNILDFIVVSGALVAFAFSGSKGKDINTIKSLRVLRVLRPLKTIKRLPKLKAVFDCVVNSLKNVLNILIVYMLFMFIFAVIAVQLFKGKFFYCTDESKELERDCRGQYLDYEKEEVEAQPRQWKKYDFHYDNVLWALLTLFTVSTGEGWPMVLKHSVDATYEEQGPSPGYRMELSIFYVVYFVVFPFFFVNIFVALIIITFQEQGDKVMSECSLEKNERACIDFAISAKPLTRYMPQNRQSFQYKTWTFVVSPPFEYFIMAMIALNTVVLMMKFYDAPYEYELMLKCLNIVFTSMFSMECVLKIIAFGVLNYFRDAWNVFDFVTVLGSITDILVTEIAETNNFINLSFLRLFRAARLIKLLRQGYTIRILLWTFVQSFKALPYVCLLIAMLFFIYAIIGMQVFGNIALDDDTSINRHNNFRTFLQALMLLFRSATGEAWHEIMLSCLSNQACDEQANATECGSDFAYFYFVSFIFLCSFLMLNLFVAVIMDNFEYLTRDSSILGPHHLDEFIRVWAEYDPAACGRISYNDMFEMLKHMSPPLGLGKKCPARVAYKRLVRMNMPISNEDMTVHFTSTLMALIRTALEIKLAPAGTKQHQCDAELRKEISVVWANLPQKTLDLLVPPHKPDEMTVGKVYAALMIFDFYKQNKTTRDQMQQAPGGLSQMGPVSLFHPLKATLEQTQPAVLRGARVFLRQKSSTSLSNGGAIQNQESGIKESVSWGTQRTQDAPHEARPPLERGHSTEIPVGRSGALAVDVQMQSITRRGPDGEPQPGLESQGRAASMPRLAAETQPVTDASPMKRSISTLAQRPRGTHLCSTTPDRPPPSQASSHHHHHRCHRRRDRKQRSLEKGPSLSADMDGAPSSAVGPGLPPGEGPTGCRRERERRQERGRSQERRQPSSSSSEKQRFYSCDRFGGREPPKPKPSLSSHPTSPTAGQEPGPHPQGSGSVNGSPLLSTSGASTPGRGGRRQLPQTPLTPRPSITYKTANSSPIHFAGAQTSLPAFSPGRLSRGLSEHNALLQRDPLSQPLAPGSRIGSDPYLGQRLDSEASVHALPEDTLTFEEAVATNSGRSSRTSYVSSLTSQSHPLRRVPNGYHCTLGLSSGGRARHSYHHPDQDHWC

Row | Ratio IC50 (Homo sapiens) | IC50 [1] | IC50 [2] | SMILES
1 | 2.8 | 4150 nM | 11.7 µM | CC(C)CN1C(=O)CSC1c1ccncc1-c1ccc(F)cc1 (stereo unspecified)
2 | 12.8 | 660 nM | 8.41 µM | CC(C)CN1C(=O)CSC1c1cnccc1-c1ccc(Br)cc1 (stereo unspecified)
3 | 4.8 | 2410 nM | 11.5 µM | O=C1CSC(c2cccc(C(F)(F)F)c2)N1CCc1ccccn1 (stereo unspecified)
4 | 3.6 | 600 nM | 2.18 µM | CC(C)CN1C(=O)CSC1c1cnccc1-c1ccc(Cl)cc1 (stereo unspecified)
5 | 0.6 | 2430 nM | 1.48 µM | COc1ccc(CN2CCN(C(c3ccc(F)cc3)c3ccc(F)cc3)CC2)c(OC)c1OC [LOMERIZINE]
6 | 11.2 | 210 nM | 2.33 µM | CCC(C)N1C(=O)CSC1c1cnccc1-c1ccc(Br)cc1 (stereo unspecified)
7 | 1.6 | 1290 nM | 2.08 µM | CC(C)CNC(=O)CC1SC(c2cccc(C(F)(F)F)c2)N(CCc2ccccn2)C1=O (stereo unspecified)
8 | 1.7 | 10700 nM | 18.2 µM | CN(C)c1ccc(-c2cnccc2C2SCC(=O)N2C2CCCC2)cc1 (stereo unspecified)
9 | 7.8 | 530 nM | 4.16 µM | C=Cc1ccc(-c2cnccc2C2SCC(=O)N2CC(C)C)cc1 (stereo unspecified)
10 | – | 4440 nM | 12.9 µM | Cc1ccc(-c2ccncc2[C@H]2SCC(=O)N2CC(C)C)cc1 (stereo in doubt; 60) [listing 1 of 2 here]
11 | 9.6 | 1070 nM | 10.3 µM | CC(C)CN1C(=O)CSC1c1cnccc1-c1ccc(C(F)(F)F)cc1 (stereo unspecified)
12 | 1.5 | 1320 nM | 2.01 µM | O=C1CSC(c2cnccc2-c2ccc(Br)cc2)N1C1CCCCC1 (stereo unspecified)
13 | 6.3 | 880 nM | 5.54 µM | CCc1ccc(-c2ccncc2C2SCC(=O)N2CC(C)C)cc1 (stereo unspecified)
14 | 6.4 | 1960 nM | 12.5 µM | Cc1ccc(-c2ncccc2C2SCC(=O)N2CC(C)C)cc1 (stereo unspecified)
15 | – | 730 nM | 23.2 µM | Cc1ccc(-c2ccncc2[C@H]2SCC(=O)N2CC(C)C)cc1 (stereo in doubt; 61) [listing 1 of 2 here]
16 | 19.5 | 510 nM | 9.99 µM | C=Cc1ccc(-c2ccncc2C2SCC(=O)N2CC(C)C)cc1 (stereo unspecified)
17 | 0.5 | 1670 nM | 0.78 µM | Fc1ccc(C(c2ccc(F)cc2)N2CCN(C/C=C/c3ccccc3)CC2)cc1 [FLUNARIZINE]
18 | 29.1 | – | – | CC(C)CN1C(=O)CS[C@@H]1c1cnccc1-c1ccc(C(F)(F)F)cc1 (stereo in doubt; 59) [listing 1 of 2 here]
19 | 9.7 | 560 nM | 5.44 µM | CC(C)CN1C(=O)CSC1c1cccnc1-c1ccc(C(F)(F)F)cc1 (stereo unspecified)
20 | 13.6 | 590 nM | 8.03 µM | Cc1ccc(-c2cnccc2C2SCC(=O)N2CC(C)C)cc1 (stereo unspecified)
21 | 5.6 | 1680 nM | 9.51 µM | O=C1CSC(c2ccc(F)c(Br)c2)N1CCc1ccccn1 (stereo unspecified)
22 | 6.6 | 4420 nM | 29.3 µM | CC(C)CN1C(=O)COC1c1cnccc1-c1ccc(Br)cc1 (stereo unspecified)
23 | 8.9 | 700 nM | 6.2 µM | CC(C)CN1C(=O)CSC1c1cccnc1-c1ccc(Br)cc1 (stereo unspecified)

Row | Ratio IC50 (Homo sapiens) | IC50 [1] | IC50 [2] | SMILES
24 | – | 29800 nM | > 30 µM | O=C1C[S+]([O-])C(c2ccc(F)c(Br)c2)N1CCc1ccccn1 (stereo unspecified)
25 | 5.2 | 1290 nM | 6.66 µM | CC(C)CN1C(=O)CSC1c1cnccc1-c1ccc(F)cc1 (stereo unspecified)
26 | 3.2 | 1330 nM | 4.23 µM | C=Cc1ccc(-c2ncccc2C2SCC(=O)N2CC(C)C)cc1 (stereo unspecified)
27 | 3.6 | 1300 nM | 4.69 µM | O=C1CSC(c2cnccc2-c2ccc(Br)cc2)N1C1CC1 (stereo unspecified)
28 | 5.9 | 1260 nM | 7.49 µM | CC(C)CN1C(=O)CSC1c1cccnc1-c1ccc(Cl)cc1 (stereo unspecified)
29 | 2.6 | 4920 nM | 12.9 µM | CC(C)CN1C(=O)CSC1c1cccnc1-c1ccc(F)cc1 (stereo unspecified)
30 | 7.9 | 580 nM | 4.58 µM | CC(C)CN1C(=O)CSC1c1ccncc1-c1ccc(Cl)cc1 (stereo unspecified)
31 | 2.2 | 1340 nM | 2.92 µM | CC(C)CNC(=O)CC1SC(c2ccc(F)c(Br)c2)N(CCc2ccccn2)C1=O (stereo unspecified)
32 | – | 3320 nM | 12.9 µM | CC(C)CN1C(=O)CS[C@@H]1c1cnccc1-c1ccc(C(F)(F)F)cc1 (stereo in doubt; 58) [listing 1 of 2 here]
33 | 16.3 | 630 nM | 10.3 µM | O=C1CSC(c2cnccc2-c2ccc(Br)cc2)N1C1CCCC1 (stereo unspecified)
34 | 2.3 | 8930 nM | 20.6 µM | COc1ccc(-c2ncccc2C2SCC(=O)N2CC(C)C)cc1 (stereo unspecified)
35 | 31.8 | – | – | Cc1ccc(-c2ccncc2[C@H]2SCC(=O)N2CC(C)C)cc1 (stereo in doubt; 61) [listing 2 of 2 here]
36 | – | 8130 nM | > 30 µM | O=C1CS(=O)(=O)C(c2ccc(F)c(Br)c2)N1CCc1ccccn1 (stereo unspecified)
37 | 6.1 | 500 nM | 3.08 µM | CC(C)CN1C(=O)CSC1c1ccncc1-c1ccc(Br)cc1 (stereo unspecified)
38 | 3.9 | – | – | CC(C)CN1C(=O)CS[C@@H]1c1cnccc1-c1ccc(C(F)(F)F)cc1 (stereo in doubt; 58) [listing 2 of 2 here]
39 | 4.1 | 3980 nM | 16.4 µM | CC(C)CN1C(=O)CSC1c1cnccc1-c1ccccc1 (stereo unspecified)
40 | 3.1 | 1370 nM | 4.25 µM | O=C1CSC(c2ccncc2-c2ccc(C(F)(F)F)cc2)N1C1CCCC1 (stereo unspecified)
41 | 3.8 | 3970 nM | 15 µM | CC(C)CN1C(=O)C[S+]([O-])C1c1cnccc1-c1ccc(Br)cc1 (stereo unspecified)
42 | 2.9 | – | – | Cc1ccc(-c2ccncc2[C@H]2SCC(=O)N2CC(C)C)cc1 (stereo in doubt; 60) [listing 2 of 2 here]
43 | 9.5 | 1400 nM | 13.7 µM | COc1ccc(-c2cnccc2C2SCC(=O)N2CC(C)C)cc1 (stereo unspecified)
44 | 16.7 | 490 nM | 8.2 µM | Cc1ccc(-c2ccncc2C2SCC(=O)N2CC(C)C)cc1 (stereo unspecified)
45 | – | 770 nM | 22.9 µM | CC(C)CN1C(=O)CS[C@@H]1c1cnccc1-c1ccc(C(F)(F)F)cc1 (stereo in doubt; 59) [listing 2 of 2 here]
